From patent US9260455B2, “Alkyl-substituted hexahydropyrano[3,4-d][1,3]thiazin-2-amine compounds” (Pfizer Inc., priority 2012, dated 2016)
Like-named read-outs stand apart in the source and are kept apart here.

What was measured:
BACE2 = BACE2 (Homo sapiens (Human), UniProt Q9Y5Z0); assay: BACE2 Cell-free Assay; type: biochemical; details: fluorescence polarization; 2.5 nM BACE2, 150 nM peptide substrate, pH 4.5, 3 hours at 37° C.; geometric mean
Procedure: BACE2 Assay: This assay measures the inhibition of the BACE2 enzyme as it cleaves a non-native peptide. […] The substrate is Biotin-[…](Oregon green)-KK-OH. The BACE2 enzyme is available from Enzo Life Sciences (Cat #BML-SE550). Compounds are incubated in a 1⁄2 log dose response curve from a top concentration of 100 μM with BACE2 enzyme and the biotinylated fluorescent peptide in 384-well black plates (Thermo Scientific #4318). […] Plates are covered and incubated for 3 hours at 37° C. The reaction is stopped with the addition of 30 μL of 1.5 μM Streptavidin (Pierce, #21125). After a 10 minute incubation at room temperature, plates are read on a PerkinElmer Envision for fluorescent polarization (Ex485 nm/Em530 nm). The activity of the beta-secretase enzyme is detected by changes in the fluorescence polarization that occur when the substrate is cleaved by the enzyme.

BACE1 = BACE1 (Homo sapiens (Human), UniProt P56817); assay: BACE1 Cell-Free Assay; type: biochemical; details: fluorescence polarization; 0.1 nM BACE1, 150 nM peptide substrate, pH 4.5, 3 hours at 37° C.; geometric mean
[1] = system: H4 human neuroglioma cells over-expressing the wild-type human APP695; assay: sAPPβ Whole-Cell Assay (in vitro sAPPb assay); type: cell-based; details: read-out: sAPPβ Whole-Cell Assay IC50
Procedure: Whole Cell Assay (In Vitro sAPPb Assay):
H4 human neuroglioma cells over-expressing the wild-type human APP695 are treated for 18 hours with compound in cell growth media having a final concentration 1% DMSO. sAPPβ levels are measured using TMB-ELISA with capture APP N-terminal antibody (Affinity BioReagents, OMA1-03132), wild-type sAPPβ specific reporter p192 (Elan), and tertiary anti rabbit-HRP (GE Healthcare).

[2] = H4 cells, 18 hours with compound, sAPPβ by TMB-ELISA, geometric mean

Sequence of BACE2 (Q9Y5Z0 63-518): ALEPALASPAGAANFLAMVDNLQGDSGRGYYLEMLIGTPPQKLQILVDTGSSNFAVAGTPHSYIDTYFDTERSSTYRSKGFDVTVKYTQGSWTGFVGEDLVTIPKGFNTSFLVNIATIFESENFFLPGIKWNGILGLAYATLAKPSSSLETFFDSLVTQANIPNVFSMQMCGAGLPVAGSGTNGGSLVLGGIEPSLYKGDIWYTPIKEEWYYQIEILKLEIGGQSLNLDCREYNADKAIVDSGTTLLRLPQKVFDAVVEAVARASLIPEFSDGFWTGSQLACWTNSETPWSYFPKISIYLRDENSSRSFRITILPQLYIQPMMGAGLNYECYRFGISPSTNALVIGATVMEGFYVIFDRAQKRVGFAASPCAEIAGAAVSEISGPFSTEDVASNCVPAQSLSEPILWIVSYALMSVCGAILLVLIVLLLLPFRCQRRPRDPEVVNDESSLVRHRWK
Sequence of BACE1 (P56817 46-457): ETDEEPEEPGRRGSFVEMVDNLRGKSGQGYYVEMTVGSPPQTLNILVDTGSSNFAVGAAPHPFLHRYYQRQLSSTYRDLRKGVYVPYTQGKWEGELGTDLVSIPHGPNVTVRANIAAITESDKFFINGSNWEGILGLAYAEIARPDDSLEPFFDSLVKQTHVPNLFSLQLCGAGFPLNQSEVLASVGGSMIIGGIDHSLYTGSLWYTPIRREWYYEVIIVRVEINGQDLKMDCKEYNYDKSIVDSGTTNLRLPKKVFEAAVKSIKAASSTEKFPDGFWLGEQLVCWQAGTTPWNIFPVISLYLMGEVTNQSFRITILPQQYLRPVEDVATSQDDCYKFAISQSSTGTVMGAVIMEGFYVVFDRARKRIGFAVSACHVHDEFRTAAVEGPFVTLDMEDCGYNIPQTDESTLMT

Row | Compound | IC50 (BACE2) | IC50 (BACE1) | IC50 [1, 2] | IC50 ([1]; 18 h)
1 | C[C@H]1SC(N)=N[C@@]2(c3ccc(F)cc3F)CO[C@@H](CF)C[C@@H]12 [Example 1, (4R,4aR,6R,8aS)-8a-(2,4-Difluorophenyl)-6-(fluoromethyl)-4-methyl-4,4a,5,6,8,8a-hexahydropyrano[3,4-d][1,3]thiazin-2-amine] | 1560 nM | 805 nM | 61.4 nM | –
2 | COC[C@H]1C[C@H]2[C@@H](C)SC(N)=N[C@@]2(c2ccc(F)cc2F)CO1 [Example 2, (4R,4aR,6R,8aS)-8a-(2,4-Difluorophenyl)-6-(methoxymethyl)-4-methyl-4,4a,5,6,8,8a-hexahydropyrano[3,4-d][1,3]thiazin-2-amine] | 2310 nM | 737 nM | 31.9 nM | –
3 | C[C@H]1C[C@H]2CSC(N)=N[C@@]2(c2ccc(F)cc2F)CO1 [Example 3, (4aR,6S,8aS)-8a-(2,4-Difluorophenyl)-6-methyl-4,4a,5,6,8,8a-hexahydropyrano[3,4-d][1,3]thiazin-2-amine] | 1140 nM | – | 37.2 nM | –
4 | NC1=N[C@@]2(c3ccc(F)cc3F)CO[C@@H](C(F)F)C[C@H]2CS1 [Example 4, (4aR,6R,8aS)-6-(Difluoromethyl)-8a-(2,4-difluorophenyl)-4,4a,5,6,8,8a-hexahydropyrano[3,4-d][1,3]thiazin-2-amine] | 2140 nM | – | – | –
5 | CCOC[C@H]1C[C@H]2[C@@H](C)SC(N)=N[C@@]2(c2ccc(F)cc2F)CO1 [Example 5, (4R,4aR,6R,8aS)-8a-(2,4-Difluorophenyl)-6-(ethoxymethyl)-4-methyl-4,4a,5,6,8,8a-hexahydropyrano[3,4-d][1,3]thiazin-2-amine] | 274 nM | 613 nM | – | 39 nM
6 | CC(C)OC[C@H]1C[C@H]2[C@@H](C)SC(N)=N[C@@]2(c2ccc(F)cc2F)CO1 [Example 6, (4R,4aR,6R,8aS)-8a-(2,4-Difluorophenyl)-4-methyl-6-[(propan-2-yloxy)methyl]-4,4a,5,6,8,8a-hexahydropyrano[3,4-d][1,3]thiazin-2-amine] | 5080 nM | 718 nM | 42.9 nM | –
7 | CC(C)C[C@H]1C[C@H]2CSC(N)=N[C@@]2(c2ccc(F)cc2F)CO1 [Example 7, (4aR,6S,8aS)-8a-(2,4-Difluorophenyl)-6-(2-methylpropyl)-4,4a,5,6,8,8a-hexahydropyrano[3,4-d][1,3]thiazin-2-amine] | – | – | 20.6 nM | –
8 | COC[C@H]1C[C@H]2CSC(N)=N[C@@]2(c2ccc(F)cc2F)CO1 [Example 8, (4aR,6R,8aS)-8a-(2,4-Difluorophenyl)-6-(methoxymethyl)-4,4a,5,6,8,8a-hexahydropyrano[3,4-d][1,3]thiazin-2-amine] | 1630 nM | – | 30 nM | –
